Test results from patent US20230050653A1, “ROCK INHIBITOR AND PREPARATION METHOD THEREFOR AND USE THEREOF” (WUHAN LL SCIENCE AND TECHNOLOGY DEVELOPMENT CO., LTD., priority 2019, published 2023).

Assays:
[1] = target: T1, ROCK1 kinase (Homo sapiens, UniProt Q13464); assay: In vitro evaluation of ROCK1 kinase selectivity (HTRF KinEASE-STK time-resolved fluorometric assay); type: biochemical
T1 construct: purchased Invitrogen
Experimental: ROCK1 activity was detected using a 96-well (Cisbio) time-resolved fluorometric assay. The assay for ROCK1 was performed in the following assay buffer: 5 mM MgCl2 (Sigma), 1 mM DTT (Sigma) and 1× kinase buffer. The kinase buffer was used for dilution. 7.5 μL of ROCK1 kinase (Invitrogen) was added to a 96-well microplate to reach a final concentration of 0.4 ng/μL, and then 0.25 μL of test compound (DMSO content: 1%) was added. The mixture was incubated at room temperature for 0.5 h. To start the reaction, the kinase buffer was also used to mix ATP (Aladdin) and the substrate STK-substrate 2-biotin. 7.5 μL of the mixed solution was added to the microplate to reach final concentrations of 3.53 μM and 1 μM. The resulting mixture was incubated for 2 h at room temperature. […] was mixed with STK antibody-Cryptate, and then an appropriate volume of the mixture was mixed with an equal volume of streptavidin-XL665. 10 μL of the resulting mixture was added to stop the reaction. After further incubation for about 1 h, the microplate was read on a Molecular Devices SpectraMax i3x multifunctional microplate reader. The kinase buffer, the STK-substrate 2-biotin, the detection buffer, the STK antibody-Cryptate, and the streptavidin-XL665 were all from HTRF KinEASE-STK kit (Cisbio, 1000 tests, 61[…]).

[2] = target: T2, ROCK2 kinase (Homo sapiens, UniProt O75116); assay: In vitro evaluation of ROCK2 kinase activity (HTRF KinEASE-STK time-resolved fluorometric assay); type: biochemical
T2 construct: purchased Invitrogen PV3759
Experimental: ROCK2 activity screening. ROCK2 activity was detected using a 96-well (Cisbio) time-resolved fluorometric assay. The assay for ROCK2 was performed in the following assay buffer: 5 mM MgCl2 (Sigma), 1 mM DTT (Sigma) and 1× kinase buffer. The kinase buffer was used for dilution. 7.5 μL of ROCK2 kinase (Invitrogen, PV3759) was added to a 96-well microplate to reach a final concentration of 0.4 ng/μL, and then 0.25 μL of test compound (DMSO content: 1% (volume fraction)) was added. The mixture was incubated at room temperature for 0.5 h. To start the reaction, the kinase buffer was used to mix ATP (Aladdin) and the substrate STK-substrate 2-biotin. 7.5 μL of the mixed solution was added to the microplate to reach final concentrations of 6.739 μM and 1 μM. The resulting mixture was incubated for 2 h at room temperature. 5 mL of detection buffer was mixed with STK antibody-Cryptate, and then an appropriate volume of the mixture was mixed with an equal volume of streptavidin-XL665. 10 μL of the resulting mixture was added to the microplate to stop the reaction. After further incubation for about 1 h, the microplate was read on a Molecular Devices SpectraMax i3x multifunctional microplate reader. The kinase buffer, the STK-substrate 2-biotin, the detection buffer, the STK antibody-Cryptate, and the streptavidin-XL665 were all from HTRF KinEASE-STK kit (Cisbio, 1000 tests, 61[…]).

[3] = In vitro cytotoxicity assay in HepG2 cells, CCK-8 method; settings: human
Experimental: In vitro cytotoxicity assay for the compounds disclosed herein was performed in HepG2 cells using the CCK-8 method. HepG2 cells (Beina Bio) in the logarithmic growth phase were collected, the concentration of cell suspension was adjusted, and then the cells were plated on a 96-well cell culture plate at 50,000 cells/well. The cells were then incubated overnight in a cell incubator (5%, 37° C.), and after 80-90% cell confluence was achieved, test compound at each concentration gradient or vehicle (DMSO) was added after medium change. The resulting mixture was incubated in the cell incubator (5%, 37° C.) for 48 h. After the treatment, the medium in the plate was discarded. The plate was washed twice with PBS, added with CCK-8 working solution (Beyotime) at 100 μL per well, and then incubated at 37° C. for 1.5 h in the dark. Absorbance at OD450 nm was measured for each well on a microplate reader, and CC50 value of each compound was analyzed and calculated.

[4] = In vivo pharmacokinetic study in mice; settings: mouse, plasma
Description: In Vivo Pharmacokinetic Study of Compounds Disclosed Herein in Mice SPF-grade mice (SPF (Beijing) Biotechnology Co., Ltd.) were fasted overnight (without water deprivation) after adaptive feeding, and then received the compound of the present disclosure by intragastrical administration and bolus injection at tail vein. After administration, plasma of mice was collected at specific time points, and the concentration of the compound in the plasma was detected by LC-MS/MS (AB SCIEX Qtrap4500). The PK parameters of the compounds were statistically analyzed and calculated (WinNonlin V5.2, Pharsight) to show the pharmacokinetic properties of the compounds in mice.

T1 sequence (Q13464 whole entry): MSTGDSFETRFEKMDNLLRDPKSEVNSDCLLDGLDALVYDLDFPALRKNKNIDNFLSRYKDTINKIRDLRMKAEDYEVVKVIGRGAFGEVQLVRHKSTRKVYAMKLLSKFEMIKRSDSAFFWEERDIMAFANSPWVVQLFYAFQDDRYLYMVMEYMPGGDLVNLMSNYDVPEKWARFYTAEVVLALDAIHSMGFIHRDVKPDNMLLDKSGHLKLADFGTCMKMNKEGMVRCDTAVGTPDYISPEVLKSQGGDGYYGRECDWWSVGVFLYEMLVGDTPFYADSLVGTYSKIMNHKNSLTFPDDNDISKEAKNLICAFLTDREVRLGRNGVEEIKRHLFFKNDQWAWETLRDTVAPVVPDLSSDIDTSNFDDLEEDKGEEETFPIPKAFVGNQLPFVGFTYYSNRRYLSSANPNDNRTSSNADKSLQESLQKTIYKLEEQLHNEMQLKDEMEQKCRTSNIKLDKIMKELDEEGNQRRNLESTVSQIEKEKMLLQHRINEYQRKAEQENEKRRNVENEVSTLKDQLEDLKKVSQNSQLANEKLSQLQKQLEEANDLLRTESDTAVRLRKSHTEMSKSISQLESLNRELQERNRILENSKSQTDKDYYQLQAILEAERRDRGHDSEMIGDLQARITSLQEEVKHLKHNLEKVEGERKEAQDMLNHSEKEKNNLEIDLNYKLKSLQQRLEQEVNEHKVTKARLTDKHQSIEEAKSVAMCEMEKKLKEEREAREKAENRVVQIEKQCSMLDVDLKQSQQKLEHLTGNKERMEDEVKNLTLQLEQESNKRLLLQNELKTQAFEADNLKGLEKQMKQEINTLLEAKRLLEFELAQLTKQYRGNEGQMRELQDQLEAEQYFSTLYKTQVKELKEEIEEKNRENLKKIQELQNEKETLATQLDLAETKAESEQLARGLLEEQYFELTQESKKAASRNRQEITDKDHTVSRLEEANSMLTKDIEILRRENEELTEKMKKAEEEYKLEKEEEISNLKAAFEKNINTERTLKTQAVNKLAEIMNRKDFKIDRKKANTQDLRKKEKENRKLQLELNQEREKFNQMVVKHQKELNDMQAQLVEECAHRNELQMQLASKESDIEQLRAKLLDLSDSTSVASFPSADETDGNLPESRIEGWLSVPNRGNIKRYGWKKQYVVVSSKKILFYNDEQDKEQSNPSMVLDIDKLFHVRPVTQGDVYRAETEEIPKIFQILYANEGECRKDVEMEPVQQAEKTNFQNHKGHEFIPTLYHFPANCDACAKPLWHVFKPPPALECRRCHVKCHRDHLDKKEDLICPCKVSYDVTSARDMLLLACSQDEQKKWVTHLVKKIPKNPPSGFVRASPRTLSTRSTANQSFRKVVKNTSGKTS
T2 sequence (O75116 whole entry): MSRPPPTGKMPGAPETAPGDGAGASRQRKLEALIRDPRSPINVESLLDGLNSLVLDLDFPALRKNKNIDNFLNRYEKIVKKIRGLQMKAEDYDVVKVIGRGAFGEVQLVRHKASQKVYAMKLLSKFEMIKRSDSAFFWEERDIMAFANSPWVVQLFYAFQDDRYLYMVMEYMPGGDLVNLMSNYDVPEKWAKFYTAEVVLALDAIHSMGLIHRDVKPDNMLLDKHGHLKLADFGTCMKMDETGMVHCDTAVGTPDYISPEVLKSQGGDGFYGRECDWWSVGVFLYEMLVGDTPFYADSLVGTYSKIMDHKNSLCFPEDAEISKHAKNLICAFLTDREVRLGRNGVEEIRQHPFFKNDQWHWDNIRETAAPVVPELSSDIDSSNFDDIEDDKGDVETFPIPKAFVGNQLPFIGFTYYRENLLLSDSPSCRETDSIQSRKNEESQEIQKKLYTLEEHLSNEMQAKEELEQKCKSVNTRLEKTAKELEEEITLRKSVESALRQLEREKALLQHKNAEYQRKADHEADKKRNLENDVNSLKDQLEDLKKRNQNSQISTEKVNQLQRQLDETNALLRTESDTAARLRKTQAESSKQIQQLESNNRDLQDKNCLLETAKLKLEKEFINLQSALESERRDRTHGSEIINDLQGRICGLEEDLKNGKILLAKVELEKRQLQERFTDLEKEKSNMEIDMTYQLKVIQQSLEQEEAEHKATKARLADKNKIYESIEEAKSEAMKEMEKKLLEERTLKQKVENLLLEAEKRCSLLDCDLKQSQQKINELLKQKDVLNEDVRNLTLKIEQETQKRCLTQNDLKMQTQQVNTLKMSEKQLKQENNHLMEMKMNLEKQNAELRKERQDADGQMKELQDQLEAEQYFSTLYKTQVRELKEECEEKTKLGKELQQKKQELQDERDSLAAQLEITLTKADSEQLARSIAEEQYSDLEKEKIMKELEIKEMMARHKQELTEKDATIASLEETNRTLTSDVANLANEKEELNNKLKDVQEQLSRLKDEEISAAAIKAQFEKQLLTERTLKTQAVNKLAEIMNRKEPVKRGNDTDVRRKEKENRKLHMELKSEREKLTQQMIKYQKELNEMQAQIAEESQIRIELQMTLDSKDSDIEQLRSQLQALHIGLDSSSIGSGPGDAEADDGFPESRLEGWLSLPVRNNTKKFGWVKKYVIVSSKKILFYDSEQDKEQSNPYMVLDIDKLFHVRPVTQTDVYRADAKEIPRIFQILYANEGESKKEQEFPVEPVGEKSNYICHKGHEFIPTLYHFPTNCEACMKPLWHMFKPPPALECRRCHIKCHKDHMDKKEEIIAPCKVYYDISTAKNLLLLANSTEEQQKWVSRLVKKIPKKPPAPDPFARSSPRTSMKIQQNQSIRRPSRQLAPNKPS

Structure (SMILES)	IC50 [1] [µM]	IC50 [2] [µM]	other results
COc1cc(F)cc(CNC(=O)N2CCCc3cc(-c4cn[nH]c4)ccc32)c1 [Compound T204, N-(3-fluoro-5-methoxybenzyl)-6-(1H-pyrazol-4-yl)-3,4-dihydroquinoline-1(2H)-carboxamide]	0.05 to 0.5	≤ 0.05	CC50 at 48 h [3]: > 50 µM
COc1cc(CNC(=O)N2CCc3cc(-c4cn[nH]c4F)c(F)cc32)ccc1F [Compound T384, 6-fluoro-5-(5-fluoro-1H-pyrazol-4-yl)-N-(4-fluoro-3-methoxybenzyl)indoline-1-carboxamide]	≤ 0.05	≤ 0.05	CC50 at 48 h [3]: > 100 µM
COc1cccc(CNC(=O)c2ncn3cc(-c4cn[nH]c4F)ccc23)c1 [Compound T391, 6-(5-fluoro-1H-pyrazol-4-yl)-N-(3-methoxybenzyl)imidazo (1,5-a)pyridine-1-carboxamide]	≤ 0.05	≤ 0.05	CC50 at 48 h [3]: > 100 µM
COc1cc(F)cc(CNC(=O)N2CCc3cc(-c4cn[nH]c4)ccc3C2)c1 [Compound T201, N-(3-fluoro-5-methoxybenzyl)-6-(1H-pyrazol-4-yl)-3,4-dihydroisoquinoline-2(1H)-carboxamide]	0.5 to 5	0.05 to 0.5	bioavailability ([4]; 3 mg/kg Po vs Iv): 42.4%; AUC(0-t) ([4]; Iv, 3 mg/kg): 413 ng·h/mL; Cmax ([4]; Iv, 3 mg/kg): 704 ng/mL; AUC(0-t) ([4]; Po, 3 mg/kg): 175 ng·h/mL; Cmax ([4]; Po, 3 mg/kg): 95.5 ng/mL
O=C(NC1CCCC1)c1cccc([C@H](CO)NC(=O)N2CCc3cc(-c4cn[nH]c4)c(F)cc32)c1 [Compound T356-R, (R)-N-(1-(3-(cyclopentylcarbamoyl)phenyl)-2-hydroxyethyl)-6-fluoro-5-(1H-pyrazol-4-yl)indoline-1-carboxamide]	0.05 to 0.5	0.05 to 0.5	CC50 at 48 h [3]: > 200 µM
COc1cccc([C@@H](CO)NC(=O)N2CCc3cc(-c4cn[nH]c4)c(F)cc32)c1 [Compound T346]	≤ 0.05	≤ 0.05	CC50 at 48 h [3]: 45 µM
COc1cc(F)cc(CNC(=O)c2ncn3cc(-c4cn[nH]c4F)ccc23)c1 [Compound T355, 6-(5-fluoro-1H-pyrazol-4-yl)-N-(3-fluoro-5-methoxybenzyl)imidazo[1,5-a]pyridine-1-carboxamide]	≤ 0.05	≤ 0.05	CC50 at 48 h [3]: > 100 µM
COc1cc(F)cc(CNC(=O)N2CCOc3cc(-c4cn[nH]c4)ccc32)c1 [Compound T205, N-(3-fluoro-5-methoxybenzyl)-7-(1H-pyrazol-4-yl)-2H-benzo[b][1,4]oxazine-4(3H)-carboxamide]	0.05 to 0.5	≤ 0.05	CC50 at 48 h [3]: > 50 µM
COc1cc(F)cc(CNC(=O)c2ncn3cc(-c4cn[nH]c4)ccc23)c1 [Compound T238, N-(3-fluoro-5-methoxybenzyl)-6-(1H-pyrazol-4-yl)imidazo[1,5-a]pyridine-1-carboxamide]	≤ 0.05	≤ 0.05	bioavailability ([4]; 3.4 mg/kg Po vs Iv): 84.6%; AUC(0-t) ([4]; Iv, 3.4 mg/kg): 10500 ng·h/mL; Cmax ([4]; Iv, 3.4 mg/kg): 4940 ng/mL; AUC(0-t) ([4]; Po, 3.4 mg/kg): 8880 ng·h/mL; Cmax ([4]; Po, 3.4 mg/kg): 2130 ng/mL
COc1cc(F)cc(CNC(=O)N2CCc3cc(-c4cn[nH]c4)cc(Cl)c32)c1 [Compound T221, 7-chloro-N-(3-fluoro-5-methoxybenzyl)-5-(1H-pyrazol-4-yl)indoline-1-carboxamide]	0.05 to 0.5	0.05 to 0.5	
COc1cc(F)cc(CNC(=O)N2CCc3c2cc(F)c(-c2cn[nH]c2)c3F)c1 [Compound T228, 4,6-difluoro-N-(3-fluoro-5-methoxybenzyl)-5-(1H-pyrazol-4-yl)indoline-1-carboxamide]	≤ 0.05	≤ 0.05	
COc1cc(F)cc(CNC(=O)N2CCCc3sc(-c4cn[nH]c4)nc32)c1 [Compound T230]	0.05 to 0.5	0.05 to 0.5	
COc1cc(F)cc(CNC(=O)N2CCc3nc(-c4cn[nH]c4)ccc32)c1 [Compound T220, N-(3-fluoro-5-methoxybenzyl)-5-(1H-pyrazol-4-yl)-2,3-dihydro-1H-pyrrolo(3,2-b)pyridine-1-carboxamide]	0.05 to 0.5	0.05 to 0.5	
O=C(NCc1ccccc1)N1CCc2cc(-c3cn[nH]c3)ccc21 [Compound T207, N-benzyl-5-(1H-pyrazol-4-yl)indoline-1-carboxamide]	≤ 0.05	≤ 0.05	
O=C(NCc1cccc(OCC2CC2)c1)c1ncn2cc(-c3cn[nH]c3)ccc12 [Compound T376, N-(3-(cyclopropylmethoxy)benzyl)-6-(1H-pyrazol-4-yl)imidazo[1,5-a]pyridine-1-carboxamide]	0.5 to 5	0.05 to 0.5	
COc1cc(F)cc([C@@H](CO)NC(=O)N2CCc3cc(-c4c[nH]nc4N)c(F)cc32)c1 [Compound T365, (S′)-5-(3-amino-1H-pyrazol-4-yl)-6-fluoro-N-(1-(3-fluoro-5-methoxyphenyl)-2-hydroxyethyl)indoline-1-carboxamide]	0.05 to 0.5	≤ 0.05	
COc1cc(F)cc(CNC(=O)N2CCc3nc(-c4cn[nH]c4)ncc32)c1 [Compound T231]	≤ 0.05	≤ 0.05	
COc1cc(F)cc(CN(C(=O)N2CCc3cc(-c4cn[nH]c4)ccc3C2)C2CCOCC2)c1 [Compound T216]	0.05 to 0.5	0.05 to 0.5	
CN(C)Cc1cc(F)cc(CNC(=O)c2ncn3cc(-c4cn[nH]c4)ccc23)c1 [Compound T360, N-(3-((dimethylamino)methyl)-5-fluorobenzyl)-6-(1H-pyrazol-4-yl)imidazo[1,5-a]pyridine-1-carboxamide]	0.5 to 5	0.05 to 0.5	
COc1cc(F)cc(CNC(=O)N2CCc3cc(-c4cn[nH]c4)c(F)cc32)c1 [Compound T225, 6-fluoro-N-(3-fluoro-5-methoxybenzyl)-5-(1H-pyrazol-4-yl)indoline-1-carboxamide]	≤ 0.05	≤ 0.05	
COc1cc(F)cc(CNC(=O)N2CCc3cc(-c4cn[nH]c4)ncc32)c1 [Compound T219]	≤ 0.05	≤ 0.05	
CN1CC(NC(=O)c2cccc(CNC(=O)N3CCc4cc(-c5cn[nH]c5)c(F)cc43)c2)C1 [Compound T379, 6-fluoro-N-(3-((1-methylazetidin-3-yl)carbamoyl)benzyl)-5-(1H-pyrazol-4-yl)indoline-1-carboxamide]	≤ 0.05	≤ 0.05	
O=C(NCc1ccccc1)N1CCc2cc(-c3ccncc3)ccc21 [Compound T245]	0.05 to 0.5	0.05 to 0.5	
COc1cc(F)cc(CNC(=O)N2CCc3nc(-c4cn[nH]c4)sc3C2)c1 [Compound T224, N-(3-fluoro-5-methoxybenzyl)-2-(1H-pyrazol-4-yl)-6,7-dihydrothiazolo[5,4-c]pyridine-5(4H)-carboxamide]	0.05 to 0.5	0.05 to 0.5	
COc1cc(F)cc([C@@H](C)NC(=O)c2ncn3cc(-c4cn[nH]c4F)ccc23)c1 [Compound T370, (R)-6-(5-fluoro-1H-pyrazol-4-yl)-N-(1-(3-fluoro-5-methoxyphenyl)ethyl)imidazo[1,5-a]pyridine-1-carboxamide]	≤ 0.05	≤ 0.05	
O=C(NCc1cc(F)cc(F)c1)N1CCc2cc(-c3cn[nH]c3)ccc21 [Compound T226]	0.05 to 0.5	≤ 0.05	
COc1cc(F)cc(CNC(=O)c2ccc3nc(-c4cn[nH]c4)ccn23)c1 [Compound T235]	≤ 0.05	≤ 0.05	
